Biological target: Primary amine oxidase, liver isozyme (Bos taurus, UniProt Q29437)
Test: Inhibition Assay
Conditions: pH 7.2; 30 °C
Method: In the following Examples, 0.9 mL aliquots of a solution of candidate inhibitor in 100 mM potassium phosphate buffer, pH 7.2 was mixed bovine plasma amine oxidase (0.1 mL, about […]) and incubated at 30° C. aerobically. Aliquots (0.1 mL) were periodically withdrawn using disposable calibrated Drummond micropipettes and diluted with 1.0 mL of benzylamine (5 mM in 50 mM sodium phosphate buffer, pH 7.2) in a 1 cm quartz cuvette (1.5 mL volume). The rate of oxidation of benzylamine to benzaldehyde was measured by recording the increase in absorbance at 250 nm for 1 minute and compared to the rate of benzylamine oxidation in a companion control solution of enzyme without inhibitor. The concentration of active BPAO was estimated from the rate of benzylamine oxidation. Inhibitory potency values (IC50 values) and partition values for inactivation of BPAO were measured at various times as in indicated in the Tables.

Sequence of Primary amine oxidase, liver isozyme (Q29437 17-762 limits assumed): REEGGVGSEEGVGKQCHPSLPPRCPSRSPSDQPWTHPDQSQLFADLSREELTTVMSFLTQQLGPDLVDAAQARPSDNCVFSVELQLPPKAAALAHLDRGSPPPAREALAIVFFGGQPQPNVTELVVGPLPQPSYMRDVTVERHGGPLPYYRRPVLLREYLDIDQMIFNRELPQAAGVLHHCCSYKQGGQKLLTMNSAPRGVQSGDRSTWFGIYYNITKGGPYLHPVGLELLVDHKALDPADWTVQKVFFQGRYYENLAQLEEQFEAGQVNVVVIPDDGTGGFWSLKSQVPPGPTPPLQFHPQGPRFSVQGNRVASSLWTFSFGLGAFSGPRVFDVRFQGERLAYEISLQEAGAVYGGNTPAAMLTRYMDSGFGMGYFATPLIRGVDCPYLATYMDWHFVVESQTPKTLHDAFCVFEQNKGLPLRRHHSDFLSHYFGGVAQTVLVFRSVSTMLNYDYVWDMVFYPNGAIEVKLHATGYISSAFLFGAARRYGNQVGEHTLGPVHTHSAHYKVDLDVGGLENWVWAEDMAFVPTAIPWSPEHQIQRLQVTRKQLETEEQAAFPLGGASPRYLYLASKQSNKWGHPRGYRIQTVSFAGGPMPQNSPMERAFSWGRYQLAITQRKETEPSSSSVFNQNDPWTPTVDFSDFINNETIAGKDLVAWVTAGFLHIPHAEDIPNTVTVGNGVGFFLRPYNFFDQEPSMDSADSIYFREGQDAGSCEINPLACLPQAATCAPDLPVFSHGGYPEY

Row | SMILES | IC50
1 | NCCC#Cc1cccnc1 [US9161922, Table 2, Compound 6] | 3.6 µM
2 | CC#CC(CN)c1ccccc1 (stereo not drawn) [US9161922, Table 2, Compound 8] | 108 µM
3 | NCC#CCNCCc1ccccc1 [US9161922, Table 1, Compound 2] | 500 µM
4 | NCC#CC#CCN [US9161922, Table 1, Compound 7] | 9 µM
5 | NCCC#Cc1ccccc1 [US9161922, Table 2, Compound 3] | 13.5 µM
6 | NC/C=C(\Cl)CN [US9161922, Table 1, Compound 9] | 24 µM
7 | NCCC#CCc1ccccc1 [US9161922, Table 2, Compound 7] | 4.6 µM
8 | N#CC#CCN [US9161922, Table 1, Compound 5] | 13 µM
9 | NC/C=C/CN [US9161922, Table 1, Compound 8] | 2000 µM
10 | CC#CCC(N)c1ccccc1 (stereo not drawn) [US9161922, Table 2, Compound 9] | 6500 µM
11 | CC#CCCN [US9161922, Table 2, Compound 2] | 10 µM
12 | NCC#CCN [US9161922, Table 1, Compound 6] | 20 µM
13 | NCC#Cc1ccccc1 [US9161922, Table 1, Compound 3] | 700 µM
